Converted amounts (≈) assume the structure as drawn.
What was measured:
Format in all cases: functional
Candida albicans [1] = test: Antifungal activity against Candida albicans ATCC SC5314 assessed as fungal growth inhibition by NCCLS protocol based method
Nakaseomyces glabratus = test: Antifungal activity against Candida glabrata clinical isolate assessed as fungal growth inhibition by NCCLS protocol based method
Pichia kudriavzevii = test: Antifungal activity against Candida krusei GIM2.1 assessed as fungal growth inhibition by NCCLS protocol based method
Cryptococcus neoformans = test: Antifungal activity against Cryptococcus neoformans CGMCC 2.3161 assessed as fungal growth inhibition by NCCLS protocol based method
Candida parapsilosis = test: Antifungal activity against Candida parapsilosis GIM2.190 assessed as fungal growth inhibition by NCCLS protocol based method; details: Lodderomyces parapsilosis
Candida tropicalis = test: Antifungal activity against Candida tropicalis CGMCC 2.3739 assessed as fungal growth inhibition by NCCLS protocol based method
Candida albicans [2] = test: Antifungal activity against FLC-resistant Candida albicans 100 assessed as fungal growth inhibition by NCCLS protocol based method
Candida albicans [3] = test: Antifungal activity against FLC-resistant Candida albicans 311 assessed as fungal growth inhibition by NCCLS protocol based method
Candida albicans [4] = test: Antifungal activity against FLC-resistant Candida albicans 103 assessed as fungal growth inhibition by NCCLS protocol based method
Candida albicans [5] = test: Antifungal activity against FLC-resistant Candida albicans CaR assessed as fungal growth inhibition by NCCLS protocol based method
Aspergillus fumigatus = test: Antifungal activity against Aspergillus fumigatus CGMCC3.7795 assessed as fungal growth inhibition by NCCLS protocol based method
Candida albicans [6] = test: Antifungal activity against FLC-resistant Candida albicans 632 assessed as fungal growth inhibition by NCCLS protocol based method
Candida albicans [7] = test: Antifungal activity against Candida albicans CPCC400616 assessed as fungal growth inhibition by NCCLS protocol based method
Candida albicans [8] = test: Antifungal activity against FLC-resistant Candida albicans 901 assessed as fungal growth inhibition by NCCLS protocol based method
Candida albicans [9] = test: Antifungal activity against FLC-resistant Candida albicans 904 assessed as fungal growth inhibition by NCCLS protocol based method

SMILES	MIC (Candida albicans [1]) [µg/mL]	MIC (Nakaseomyces glabratus) [µg/mL]	MIC (Pichia kudriavzevii) [µg/mL]	MIC (Cryptococcus neoformans) [µg/mL]	MIC (Candida parapsilosis) [µg/mL]	MIC (Candida tropicalis) [µg/mL]	MIC (Candida albicans [2]) [µg/mL]	MIC (Candida albicans [3]) [µg/mL]	MIC (Candida albicans [4]) [µg/mL]	MIC (Candida albicans [5]) [µg/mL]	MIC (Aspergillus fumigatus) [µg/mL]	MIC (Candida albicans [6]) [µg/mL]	MIC (Candida albicans [7]) [µg/mL]	MIC (Candida albicans [8]) [µg/mL]	MIC (Candida albicans [9]) [µg/mL]
Cc1cccc(C2(Cn3ccnc3)COC(c3ccc(-c4ccccc4)s3)=N2)c1 (configuration not stated)	0.125 (≈ 0.313 µM)	> 64	> 64	0.5 (≈ 1.25 µM)	> 64	4 (≈ 10 µM)	0.5 (≈ 1.25 µM)	4 (≈ 10 µM)	4 (≈ 10 µM)	8 (≈ 20 µM)	> 64	4 (≈ 10 µM)	2 (≈ 5.01 µM)	8 (≈ 20 µM)	4 (≈ 10 µM)
CC(C)c1ccccc1-c1ccc(C2=NC(Cn3ccnc3)(c3ccc(F)cc3)CO2)s1 (configuration not stated)	> 64	> 64	> 64	> 64	> 64	> 64	–	–	–	–	> 64	–	> 64	–	–
Fc1ccc(C2(Cn3ccnc3)COC(c3ccc(-c4ccc(OCC(F)(F)F)cc4)s3)=N2)cc1 (configuration not stated)	> 64	> 64	> 64	> 64	> 64	> 64	–	–	–	–	> 64	–	> 64	–	–
Cc1cccc(-c2ccc(C3=NC(Cn4ccnc4)(c4ccc(F)cc4)CO3)s2)c1 (configuration not stated)	0.5 (≈ 1.2 µM)	> 64	> 64	16 (≈ 38.3 µM)	16 (≈ 38.3 µM)	4 (≈ 9.58 µM)	–	–	–	–	32 (≈ 76.6 µM)	–	0.25 (≈ 0.599 µM)	–	–
CCc1ccccc1-c1ccc(C2=NC(Cn3ccnc3)(c3ccc(F)cc3)CO2)s1 (configuration not stated)	> 64	> 64	> 64	> 64	> 64	> 64	–	–	–	–	> 64	–	> 64	–	–
Fc1ccccc1C1(Cn2ccnc2)COC(c2ccc(-c3ccccc3)s2)=N1 (configuration not stated)	0.5 (≈ 1.24 µM)	0.25 (≈ 0.62 µM)	1 (≈ 2.48 µM)	0.5 (≈ 1.24 µM)	0.25 (≈ 0.62 µM)	0.125 (≈ 0.31 µM)	0.125 (≈ 0.31 µM)	0.25 (≈ 0.62 µM)	0.25 (≈ 0.62 µM)	0.125 (≈ 0.31 µM)	8 (≈ 19.8 µM)	1 (≈ 2.48 µM)	0.125 (≈ 0.31 µM)	1 (≈ 2.48 µM)	1 (≈ 2.48 µM)
COc1ccc(-c2ccc(C3=NC(Cn4ccnc4)(c4ccc(F)cc4)CO3)s2)cc1 (configuration not stated)	> 64	> 64	> 64	> 64	> 64	> 64	–	–	–	–	> 64	–	> 64	–	–
Clc1ccc(C2(Cn3ccnc3)COC(c3ccc(-c4ccccc4)s3)=N2)cc1 (configuration not stated)	0.25 (≈ 0.595 µM)	16 (≈ 38.1 µM)	16 (≈ 38.1 µM)	0.5 (≈ 1.19 µM)	2 (≈ 4.76 µM)	0.125 (≈ 0.298 µM)	4 (≈ 9.53 µM)	4 (≈ 9.53 µM)	4 (≈ 9.53 µM)	1 (≈ 2.38 µM)	8 (≈ 19.1 µM)	1 (≈ 2.38 µM)	0.25 (≈ 0.595 µM)	0.5 (≈ 1.19 µM)	2 (≈ 4.76 µM)
Fc1ccc(C2(Cn3ccnc3)COC(c3ccc(-c4ccccc4Cl)s3)=N2)cc1 (configuration not stated)	0.5 (≈ 1.14 µM)	> 64	> 64	> 64	> 64	> 64	–	–	–	–	16 (≈ 36.5 µM)	–	0.25 (≈ 0.571 µM)	–	–
Fc1ccc(C2(Cn3ccnc3)COC(c3ccc(-c4ccc(Cl)cc4)s3)=N2)cc1 (configuration not stated)	8 (≈ 18.3 µM)	> 64	8 (≈ 18.3 µM)	> 64	> 64	4 (≈ 9.13 µM)	–	–	–	–	8 (≈ 18.3 µM)	–	2 (≈ 4.57 µM)	–	–
Fc1ccc(C2(Cn3ccnc3)COC(c3ccc(-c4ccc(C(F)(F)F)cc4)s3)=N2)cc1 (configuration not stated)	> 64	> 64	> 64	> 64	> 64	> 64	–	–	–	–	> 64	–	> 64	–	–
Fc1cccc(C2(Cn3ccnc3)COC(c3ccc(-c4ccccc4)s3)=N2)c1 (configuration not stated)	> 64	> 64	> 64	> 64	> 64	8 (≈ 19.8 µM)	–	–	–	–	> 64	–	> 64	–	–
CCOc1ccc(-c2ccc(C3=NC(Cn4ccnc4)(c4ccc(F)cc4)CO3)s2)cc1 (configuration not stated)	0.5 (≈ 1.12 µM)	32 (≈ 71.5 µM)	> 64	> 64	> 64	1 (≈ 2.23 µM)	–	–	–	–	8 (≈ 17.9 µM)	–	2 (≈ 4.47 µM)	–	–
FC(F)(F)c1ccc(C2(Cn3ccnc3)COC(c3ccc(-c4ccccc4)s3)=N2)cc1 (configuration not stated)	0.125 (≈ 0.276 µM)	> 64	> 64	> 64	> 64	> 64	–	–	–	–	> 64	–	0.5 (≈ 1.1 µM)	–	–
N#Cc1ccc(-c2ccc(C3=NC(Cn4ccnc4)(c4ccc(F)cc4)CO3)s2)cc1 (configuration not stated)	0.125 (≈ 0.292 µM)	> 64	> 64	> 64	> 64	16 (≈ 37.3 µM)	–	–	–	–	16 (≈ 37.3 µM)	–	1 (≈ 2.33 µM)	–	–
COc1cccc(C2(Cn3ccnc3)COC(c3ccc(-c4ccccc4)s3)=N2)c1 (configuration not stated)	0.125 (≈ 0.301 µM)	> 64	> 64	> 64	> 64	1 (≈ 2.41 µM)	–	–	–	–	> 64	–	1 (≈ 2.41 µM)	–	–
CCc1ccc(-c2ccc(C3=NC(Cn4ccnc4)(c4ccc(F)cc4)CO3)s2)cc1 (configuration not stated)	4 (≈ 9.27 µM)	64 (≈ 148 µM)	> 64	> 64	16 (≈ 37.1 µM)	> 64	–	–	–	–	4 (≈ 9.27 µM)	–	4 (≈ 9.27 µM)	–	–
Clc1cccc(C2(Cn3ccnc3)COC(c3ccc(-c4ccccc4)s3)=N2)c1 (configuration not stated)	> 64	> 64	> 64	2 (≈ 4.76 µM)	4 (≈ 9.53 µM)	> 64	–	–	–	–	> 64	–	> 64	–	–
Fc1ccc(-c2ccc(C3=NC(Cn4ccnc4)(c4ccc(F)cc4)CO3)s2)cc1 (configuration not stated)	2 (≈ 4.75 µM)	> 64	16 (≈ 38 µM)	8 (≈ 19 µM)	> 64	0.5 (≈ 1.19 µM)	–	–	–	–	8 (≈ 19 µM)	–	1 (≈ 2.37 µM)	–	–
N#Cc1cccc(-c2ccc(C3=NC(Cn4ccnc4)(c4ccc(F)cc4)CO3)s2)c1 (configuration not stated)	0.5 (≈ 1.17 µM)	> 64	> 64	2 (≈ 4.67 µM)	> 64	1 (≈ 2.33 µM)	–	–	–	–	16 (≈ 37.3 µM)	–	0.5 (≈ 1.17 µM)	–	–
COc1cccc(-c2ccc(C3=NC(Cn4ccnc4)(c4ccc(F)cc4)CO3)s2)c1 (configuration not stated)	> 64	> 64	> 64	> 64	> 64	> 64	–	–	–	–	> 64	–	> 64	–	–
Fc1ccc(C2(Cn3ccnc3)COC(c3ccc(-c4cccc(OC(F)(F)F)c4)s3)=N2)cc1 (configuration not stated)	> 64	> 64	> 64	> 64	> 64	> 64	–	–	–	–	> 64	–	> 64	–	–
